{"source": "paper PMC7190177", "about": "“Click chemistry-facilitated comprehensive identification of proteins adducted by antimicrobial 5-nitroimidazoles for discovery of alternative drug targets against giardiasis” (PLoS Neglected Tropical Diseases, 2020)", "key": {"[1]": {"target": "T1, Ornithine carbamoyltransferase (OCT) (Giardia duodenalis, UniProt E2RTT6)", "T1 construct": "gene GL50803_0010311; native protein in trophozoites, 327 aa", "T1 sequence (E2RTT6 1-327)": "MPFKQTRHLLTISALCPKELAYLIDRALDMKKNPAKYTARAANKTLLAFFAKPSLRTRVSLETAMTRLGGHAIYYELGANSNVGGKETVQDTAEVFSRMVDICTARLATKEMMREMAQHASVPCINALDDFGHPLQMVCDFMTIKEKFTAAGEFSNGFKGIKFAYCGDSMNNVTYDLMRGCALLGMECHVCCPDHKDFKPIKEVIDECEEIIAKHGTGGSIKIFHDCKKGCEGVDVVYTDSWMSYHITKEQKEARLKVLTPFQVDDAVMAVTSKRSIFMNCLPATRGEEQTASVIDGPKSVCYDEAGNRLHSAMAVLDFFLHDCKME", "assay": "click biotinylation, streptavidin pull-down from treated trophozoites, LC-MS/MS and immunoblot", "type": "cell-based", "conditions": "covalent; prodrug reduced in the cells; 100 uM, 2 h"}, "Arginine deiminase (ADI)": {"target": "T2, Arginine deiminase (ADI) (Giardia duodenalis, UniProt E2RU36)", "T2 construct": "gene GL50803_00112103; full-length 580 aa, C-terminal His tag (pETite C-His), E. coli BL21-CodonPlus(DE3)-RIL", "T2 sequence (E2RU36 entry or part of it)": "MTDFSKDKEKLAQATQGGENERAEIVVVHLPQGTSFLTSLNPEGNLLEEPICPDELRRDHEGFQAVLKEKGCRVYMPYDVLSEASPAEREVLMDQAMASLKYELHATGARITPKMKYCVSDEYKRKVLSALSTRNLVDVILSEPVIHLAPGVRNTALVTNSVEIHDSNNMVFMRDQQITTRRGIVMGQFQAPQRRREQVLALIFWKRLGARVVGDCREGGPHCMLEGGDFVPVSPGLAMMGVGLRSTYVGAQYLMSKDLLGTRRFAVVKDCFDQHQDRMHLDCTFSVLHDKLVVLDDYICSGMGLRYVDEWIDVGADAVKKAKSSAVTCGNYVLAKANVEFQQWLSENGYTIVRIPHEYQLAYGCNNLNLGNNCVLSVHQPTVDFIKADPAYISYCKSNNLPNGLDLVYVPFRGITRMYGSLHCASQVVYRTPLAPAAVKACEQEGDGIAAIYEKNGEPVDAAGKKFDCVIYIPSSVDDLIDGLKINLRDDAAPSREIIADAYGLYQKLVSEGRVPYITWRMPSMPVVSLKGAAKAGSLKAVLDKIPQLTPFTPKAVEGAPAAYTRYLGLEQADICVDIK", "assay": "colorimetric citrulline-detection assay of recombinant His-tagged ADI", "type": "biochemical", "conditions": "500 uM Mz-alkyne + 1 mM dithionite (reductive activation of prodrug), 2 h; 1 mM arginine, Hepes pH 7.0, 37 C; covalent"}, "Enolase": {"target": "T3, Enolase (Giardia duodenalis, UniProt E2RTS6)", "T3 construct": "gene GL50803_0011118; native protein in trophozoites, 445 aa", "T3 sequence (E2RTS6 1-445)": "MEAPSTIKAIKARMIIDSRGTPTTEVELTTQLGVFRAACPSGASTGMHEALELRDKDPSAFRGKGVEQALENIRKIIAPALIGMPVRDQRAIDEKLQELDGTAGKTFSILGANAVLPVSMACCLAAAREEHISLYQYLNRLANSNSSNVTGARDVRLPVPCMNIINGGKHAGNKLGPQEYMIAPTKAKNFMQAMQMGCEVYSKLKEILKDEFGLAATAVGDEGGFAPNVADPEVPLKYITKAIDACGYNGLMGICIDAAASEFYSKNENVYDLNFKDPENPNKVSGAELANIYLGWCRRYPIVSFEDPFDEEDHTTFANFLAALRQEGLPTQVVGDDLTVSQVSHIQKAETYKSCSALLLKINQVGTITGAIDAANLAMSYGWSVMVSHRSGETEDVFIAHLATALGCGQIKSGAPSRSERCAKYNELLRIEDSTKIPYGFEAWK", "assay": "click biotinylation, streptavidin pull-down from treated trophozoites, LC-MS/MS and immunoblot", "type": "cell-based", "conditions": "covalent; prodrug reduced in the cells; 100 uM, 2 h"}}, "data": [{"smiles": "C#CCCn1c([N+](=O)[O-])cnc1C", "note": "[Mz-alkyne, 1-(But-3-ynyl)-2-methyl-5-nitro-1H-imidazole]", "values": [{"measurement": "adduct", "setting": "[1]", "value": "these proteins were labeled with biotin and thus adducted by Mz-alkyne"}, {"measurement": "inhibition", "setting": "Arginine deiminase (ADI)", "value": "Wild-type ADI was significantly inhibited by activated Mz-alkyne under cell-free conditions"}, {"measurement": "adduct", "setting": "Enolase", "value": "these proteins were labeled with biotin and thus adducted by Mz-alkyne"}]}]}
